Measurements taken from patent publication US20050192337A1, “Processes and polymorphs of diaryl-indolone galr3 antagonists” (priority 2002, published 2005).

Legend:
Assay type in all cases: physicochemical
[1] = Stress studies of Compound I (heat stress, XRPD of resulting solid); conditions: for Stability to heat stress: Table 7
Protocol: (§1) X-ray powder diffraction (XRPD) analyses were performed using a Shimadzu XRD-6000 X-ray powder diffractometer using Cu Kα radiation. The instrument was equipped with a fine focus X-ray tube. The tube voltage and amperage were set to 40 kV and 40 mA, respectively. The divergence and scattering slits were set at 1° and the receiving slit was set at 0.15 mm. Diffracted radiation was detected by a NaI scintillation detector. A theta-two theta continuous scan at 3°/min (0.4 sec/0.02° step) from 2.5 to 40° 2θ was used. A silicon standard was analyzed to check the instrument alignment. Data were collected and analyzed using XRD-6000 v. 4.1. Samples were prepared for analysis by placing them in a silicon sample holder or aluminum holder with silicon insert. X-ray powder diffraction (XRPD) analyses were also performed using an Inel XRG-3000 diffractometer equipped with a CPS (Curved Position Sensitive) detector with a 2θ range of 120°. Real time data were collected using Cu-Kα radiation starting at approximately 4° 2θ at a resolution of 0.03° 2θ. The tube voltage and amperage were set to 40 kV and 30 mA, respectively. The monochromator slit was set at 5 mm by 80 μm. […] Samples were prepared for analysis by packing them into thin-walled glass capillaries. Each capillary was mounted onto a goniometer head that is motorized to permit spinning of the capillary during data acquisition. The samples were analyzed for 5 min. Instrument calibration was performed using a silicon reference standard.
(§2) All three polymorphs are also non-hygroscopic, as indicated by the data in Table 8.

[2] = Moisture sorption/desorption (moisture balance) of Compound I forms
[3] = Slurry experiments on Compound I crystalline forms (XRPD); conditions: for Conversion upon stirring as a slurry in an organic solvent: a few hours to several days, Tables 9 and 10
Protocol: as §1, §2
Form I can be obtained in a straightforward fashion by stirring a slurry of any solid form of Compound I, and particularly Form II or III, in an organic solvent in which Compound I is partially soluble, for several hours until the material converts completely to Form I. Formation of Form I can be analyzed through DSC or, preferably, XRPD analysis. In one embodiment of the invention, a slurry of solid Compound I in an organic solvent is generated by cooling a hot, saturated solution of Compound I in an organic solvent, allowing crystals to form, then stirring the resulting slurry for several hours or a few days until the solid material converts substantially or completely to Form I. In a preferred embodiment, the hot, saturated solution of Compound I is generated in situ in the one-pot synthetic process described above. Form I can also be prepared by slurrying for several hours Compound I, Form II in a saturated methanol solution or in an appropriate solvent.

[4] = Interconversion experiments of Compound I (slurry of mixed forms, XRPD); conditions: 25° C.
Protocol: as §1, with “Each capillary was mounted onto a goniometer head that is motorized to permit spinning of the capillary during data acquisition.” left out, “Instrument calibration was performed using a silicon reference standard.” left out

[5] = Differential scanning calorimetry, relative stability of forms on heating; conditions: high temperatures, DSC 1° C./min
Protocol: Differential scanning calorimetry (DSC) was performed using a TA Instruments differential scanning calorimeter 2920. The sample was placed into an aluminum DSC pan, and the weight accurately recorded. The pan was covered with a lid and left uncrimped. Each sample was equilibrated at 25° C. and heated under a nitrogen purge at a rate of 10 or 20° C./min, up to a final temperature of 270° C. or 350° C. Samples were also heated at 1 or 5° C./min up to 150° C.

## O=C1C(=Nc2cccc(C(F)(F)F)c2)c2ccccc2N1c1ccccc1 (racemic) [amorphous, 1-phenyl-3-[[3-(trifluoromethyl)phenyl]imino]-1H-indol-2-one]
[1]; 60 C./17 hours
  Result (XRPD form after stress): III (LC)
[2]; 5% RH
  Moisture Balance Results: weight gain at 5% RH: <0.1% weight gain at 5% RH,
[2]
  Moisture Balance Results: total weight gain at 95% RH: 0.3% total weight gain at
[2]; after moisture balance run
  XRPD Results on solid after moisture balance run: amorphous

## O=C1/C(=N\c2cccc(C(F)(F)F)c2)c2ccccc2N1c1ccccc1 [Compound I, 1-phenyl-3-[[3-(trifluoromethyl)phenyl]imino]-1H-indol-2-one]
[2]; 5% RH
  Moisture Balance Results: weight loss at 5% RH: <0.1% weight loss at 5% RH,
[2]
  Moisture Balance Results: total weight gain at 95% RH: <0.1% total weight gain at
[3]; MeOH, ambient, 11 d
  XRPD Results after slurry: I (PO)

## O=C1/C(=N\c2cccc(C(F)(F)F)c2)c2ccccc2N1c1ccccc1 [Form I, 1-phenyl-3-[[3-(trifluoromethyl)phenyl]imino]-1H-indol-2-one]
[1]
  Stability to heat stress: relatively stable to heat stress
[2]
  Hygroscopicity: nonhygroscopic
[3]
  Conversion upon stirring as a slurry in an organic solvent: remains unchanged
[4]
  Relative stability of forms: more stable than either Form II or III

## O=C1/C(=N\c2cccc(C(F)(F)F)c2)c2ccccc2N1c1ccccc1 [Form II, 1-phenyl-3-[[3-(trifluoromethyl)phenyl]imino]-1H-indol-2-one]
[1]; 80 C., 4 days
  Result (XRPD form after stress): II (PO) + peak@5° 2θ
[1]
  Stability to heat stress: relatively stable to heat stress
[2]; 5% RH
  Moisture Balance Results: weight loss at 5% RH: <0.1% weight loss at 5% RH,
[2]
  Moisture Balance Results: total weight gain at 95% RH: <0.1% total weight gain at
[3]; Experiment 3, MeOH, 25° C., 1 hour
  XRPD Results after slurry: II + I (minor)
[3]; Experiment 4, MeOH, 25° C., 1 hour
  XRPD Results after slurry: I + II
[3]; Experiment 4, MeOH, 25° C., 1 hour 20 min
  XRPD Results after slurry: I + II
[3]; Experiment 4, MeOH, 25° C., 1 hour 40 min
  XRPD Results after slurry: I + II (minor)
[3]; MeOH, ambient, 11 d
  XRPD Results after slurry: I (PO)
[3]
  Conversion upon stirring as a slurry in an organic solvent: convert to Form I
[5]
  Relative stability of forms: more stable than Form I

## O=C1C(=Nc2cccc(C(F)(F)F)c2)c2ccccc2N1c1ccccc1 (racemic) [Form III, 1-phenyl-3-[[3-(trifluoromethyl)phenyl]imino]-1H-indol-2-one]
[1]; 60 C., 4 days
  Result (XRPD form after stress): III (SS)
[1]; 70 C., 4 days
  Result (XRPD form after stress): III (SS)
[1]; 80 C., 4 days
  Result (XRPD form after stress): III (SS)
[1]
  Stability to heat stress: relatively stable to heat stress
[2]
  Hygroscopicity: nonhygroscopic
[2]; 5% RH
  Moisture Balance Results: weight loss at 5% RH: <0.1% weight loss at 5% RH,
[2]; listed as III
  Moisture Balance Results: total weight gain at 95% RH: <0.1% total weight gain at
[3]
  Conversion upon stirring as a slurry in an organic solvent: convert to Form I
